From US20250154146A1, “PROTEIN DEGRADERS DEVELOPED ON BASIS OF BCL-2 FAMILY PROTEIN LIGAND COMPOUNDS AND USE THEREOF” (ShanghaiTech University, priority 2022, published 2025) come the findings set out here.

Some results are limits rather than exact numbers.

Holding throughout (format): cell-based
The test system of experiment [1] is Hedgehog (Hh) signaling pathway. In words: Dual-luciferase reporter assay of Hedgehog activity in Light II cells. The note with it: SAG stimulation, 36 h, dual-luciferase assay reporter kit, read-out: IC50 (nM) in Light II cells (inhibiting Hedgehog activity). As to the method:
Determination of the IC50 Values of Compounds Inhibiting Hedgehog Activity—Dual-Luciferase Reporter Assay:
Light II cells were NIH3T3 cell lines that stably express the Gli-luciferase and TK-renilla reporters. They were cultured with DMEM medium containing 10% (v/v) fetal bovine serum (FBS), 0.4 mg/ml G418, 0.15 mg/ml bleomycin (Zeocin), and penicillin/streptomycin at 37° C. in an incubator with 5% CO2. Light II cells in the logarithmic growth phase were seeded at a density of 2.5×10^4 cells/well in a 96-well plate. After 24h incubation, the cells were subjected to treatment with SAG with or without different concentrations of the compounds of the present disclosure for 36 h. After that, the Hedgehog activity was measured using the dual fluorescence reporter kit according to its instructions. The experiment had 3 replicates per group and was repeated at least three times.

In a further experiment the test system is RS4;11 cells. In words: Thiazolyl blue cell proliferation assay in RS4;11 cells. The note with it: Homo sapiens, RS4;11 acute lymphoblastic leukemia cells, 48 hours, read-out: IC50 (nM) for inhibiting the proliferation of RS4;11 cells. An excerpt:
(§1) The cell lines RS4;11 (human acute lymphocytic leukemia cells), Molt-4 cells (human acute lymphocytic leukemia cells), MV4;11 (human myeloid monocytic leukemia cells), and Light II cells were commercially available or purchased from ATCC (American Type Culture Collection) and routinely cultured according to instructions.
1) Study on the proliferation inhibition effects induced by the compounds of the present disclosure designed based on ABT199/263 against BCL-XL-dependent RS4;11 cells:
(§2) The specific steps were as follows: RS4;11 cells were seeded at a density of 3×10^4 cells/well in 90 μL of serum-containing RPMI-1640 culture medium. DT2216 and the compounds of the present disclosure were added to the cell suspension at corresponding concentration gradients. DT2216 and DMSO were used as positive and vehicle control, respectively. The positive control and negative control were treated with the same treatment method as the compounds of the present disclosure. After treating the cells with the compounds of the present disclosure for 48 hours, thiazole blue solution (5 mg/mL) was added at 10 μL/well to the cell suspension, followed by incubation for 3 hours at 37° C. in an incubator with 5% CO2. Then, triple solution (0.1 g/mL SDS, 5% isopropyl alcohol, 10 mM hydrochloric acid) was added, followed by incubation for 4-6 hours at 37° C. in an incubator with 5% CO2. After confirming that all the crystal violets were dissolved under inverted biological microscopy, the absorbance was measured at 490 nm using an Epoch microplate reader (Biotek Corporation). The growth inhibition of the compounds of the present disclosure on the cells was plotted by GraphPad Prism 8 software, and the IC50 values of the compounds of the present disclosure were calculated therefrom. The experiment had 3 replicates per group and was repeated at least three times.
We conducted dose-dependent experiments on the designed and synthesized compounds of the present disclosure in RS4;11 cells, which are highly sensitive to BCL-XL inhibitors. The cells were treated with 7 different concentrations (starting at the highest concentration of 1000 nM or 100 nM; 10-fold serial dilutions) of the compounds for 48 hours, and then tested using the thiazolyl blue cell proliferation assay.

In a further experiment the test system is Molt-4 cells. In words: Thiazolyl blue cell proliferation assay in Molt-4 cells. The note with it: Homo sapiens, Molt-4 acute lymphocytic leukemia cells, 72 hours, read-out: IC50 (nM) for inhibiting the proliferation of Molt-4 cells.
Excerpt: as §1
3) Study on the proliferation inhibition effects induced by the compounds of the present disclosure designed based on ABT199/263 against BCL-XL-dependent Molt-4 cells:
as §2, with “follows: Molt-4” for “follows: RS4;11”, “of 2×10^4” for “of 3×10^4”, “in 180” for “in 90”, “serum-containing RPMI 1640” for “serum-containing RPMI-1640”, “for 72” for “for 48”, “at 20” for “at 10”

A further experiment concerns MV4;11 cells. In words: Thiazolyl blue cell proliferation assay in MV4;11 cells. The following applies: Homo sapiens, MV4;11 myeloid monocytic leukemia cells, 48 hours, read-out: IC50 (nM) for inhibiting the proliferation of MV4;11 cells.
Excerpt: as §1
2) Study on the proliferation inhibition effects induced by the compounds of the present disclosure designed based on ABT199/263 against BCL-XL-dependent MV4;11 cells:
as §2, with “MV4;11” for “RS4;11”, “2×10^4” for “3×10^4”, “IMDM” for “RPMI-1640”, “µL/well” for “μL/well”

On to `C[C@@H]1CN([C@H]2CC[C@H](CNc3ccc(S(=O)(=O)NC(=O)c4ccc(N5CCN(CC6=C(c7ccc(Cl)cc7)CC(C)(C)CC6)CC5)cc4Oc4cnc5[nH]ccc5c4)cc3[N+](=O)[O-])CC2)CCN1Cc1ccc2c(c1)CN(C1CCC(=O)NC1=O)C2=O` (stereo partly drawn) [BCL-03168, 2-((1H-pyrrolo[2,3-b]pyridin-5-yl)oxy)-4-(4-((4′-chloro-5,5-dimethyl-3,4,5,6-tetrahydro-[1,1′-biphenyl]-2-yl)methyl)piperazin-1-yl)-N-((4-((((trans)-4-((3R)-4-((2-(2,6-dioxopiperidin-3-yl)-1-oxoisoindolin-5-yl)methyl)-3-methylpiperazin-1-yl)cyclohexyl)methyl)amino)-3-nitrophenyl)sulfonyl)benzamide], for which the IC50 in experiment [1] was under 10 nM; in the experiment on RS4;11 cells, under 20 nM; in the experiment with Molt-4 cells, under 10 nM; with MV4;11 cells it was under 20 nM.

As to `C[C@H]1CN([C@H]2CC[C@H](CNc3ccc(S(=O)(=O)NC(=O)c4ccc(N5CCN(CC6=C(c7ccc(Cl)cc7)CC(C)(C)CC6)CC5)cc4Oc4cnc5[nH]ccc5c4)cc3[N+](=O)[O-])CC2)CCN1Cc1ccc2c(c1)CN(C1CCC(=O)NC1=O)C2=O` (stereo partly drawn) [BCL-03166, 2-((1H-pyrrolo[2,3-b]pyridin-5-yl)oxy)-4-(4-((4′-chloro-5,5-dimethyl-3,4,5,6-tetrahydro-[1,1′-biphenyl]-2-yl)methyl)piperazin-1-yl)-N-((4-((((trans)-4-((3S)-4-((2-(2,6-dioxopiperidin-3-yl)-1-oxoisoindolin-5-yl)methyl)-3-methylpiperazin-1-yl)cyclohexyl)methyl)amino)-3-nitrophenyl)sulfonyl)benzamide], the IC50 in experiment [1] was under 10 nM; with RS4;11 cells, under 20 nM; with Molt-4 cells, under 10 nM; in the experiment on MV4;11 cells, under 20 nM.

Take `CC1(C)CCC(c2ccc(Cl)cc2)=C(CN2CCN(c3ccc(C(=O)NS(=O)(=O)c4ccc(N[C@H](CCN5CCN(Cc6ccc7c(c6)C(=O)N(C6CCC(=O)NC6=O)C7=O)CC5)CSc5ccccc5)c(S(=O)(=O)C(F)(F)F)c4)cc3)CC2)C1` (stereo partly drawn) [BCL-03189, 4-(4-((4′-chloro-4,4-dimethyl-3,4,5,6-tetrahydro-[1,1′-biphenyl]-2-yl)methyl)piperazin-1-yl)-N-((4-(((2R)-4-(4-((2-(2,6-dioxopiperidin-3-yl)-1,3-dioxoisoindolin-5-yl)methyl)piperazin-1-yl)-1-(phenylthio)butan-2-yl)amino)-3-((trifluoromethyl)sulfonyl)phenyl)sulfonyl)benzamide]: the IC50 is under 10 nM in experiment [1], under 20 nM in the experiment with RS4;11 cells, under 10 nM in the experiment with Molt-4 cells and under 20 nM in the experiment on MV4;11 cells.

For the molecule `C[C@H]1CN([C@H]2CC[C@@H](CNc3ccc(S(=O)(=O)NC(=O)c4ccc(N5CCN(CC6=C(c7ccc(Cl)cc7)CC(C)(C)CC6)CC5)cc4Oc4cnc5[nH]ccc5c4)cc3[N+](=O)[O-])CC2)CCN1Cc1cc(Br)c2c(c1)C(=O)N(C1CCC(=O)NC1=O)C2` (stereo partly drawn) [BCL-03169, 2-((1H-pyrrolo[2,3-b]pyridin-5-yl)oxy)-N-((4-((((cis)-4-((3S)-4-((7-bromo-2-(2,6-dioxopiperidin-3-yl)-3-oxoisoindolin-5-yl)methyl)-3-methylpiperazin-1-yl)cyclohexyl)methyl)amino)-3-nitrophenyl)sulfonyl)-4-(4-((4′-chloro-5,5-dimethyl-3,4,5,6-tetrahydro-[1,1′-biphenyl]-2-yl)methyl)piperazin-1-yl)benzamide], the IC50 in experiment [1] is under 10 nM; in the experiment on RS4;11 cells it was under 20 nM; with Molt-4 cells, under 10 nM; with MV4;11 cells, under 20 nM.
